According to patent publication US12459951B2, “Compounds that interact with RAS superfamily proteins for treatment of cancers, inflammatory diseases, rasopathies, and fibrotic disease” (SHY Therapeutics, LLC, priority 2022, dated 2025):

What was measured:
JNK phosphorylation = assay: JNK Activation Assay (western blot), Panc-1; format: cell-based, human; conditions: at 10 μM, Panc-1 pancreatic cancer cell line; starred symbols = activation
Summary of the method: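 KRas G12C Panc-1 cells treated 6 h at 37 °C with compound at 10 μM (0.3% DMSO), or serial dilutions for IC50. In Method 1 cells were serum-starved overnight (0.5% FBS) then stimulated with 1.5 ng/ml EGF for 15 min; Method 2 used 10% FBS without stimulation. Phospho-JNK (Thr183/Tyr185) measured by western blot.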

KRas G12C mutant = assay: Ras GTP Binding Domain Inhibition Assay (Ras Superfamily Assay); conditions: 20 μM compound; for KRas G12C mutant + SOS: % inh.: with SOS; for KRas G12C mutant: % inh.: without SOS
Summary of the method: (§1)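 His-tagged GTPases immobilised on nickel-coated plates, pre-incubated with compound (20 μM single point, or serial dilution for IC50) 3 h at room temperature, with or without 10-30 μg/mL Sos (residues 556-1049) in the final hour. Bound Cy3- or Cy5-GTP (100 nM, 45 min) measured by fluorescence after washing.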

KRas Q61H mutant = assay: as above; conditions: 20 μM compound; for KRas Q61H mutant + SOS: % inh.: with SOS; for KRas Q61H mutant: % inh.: without SOS
Summary of the method: as §1

Rho-A = target: T1, Rho-A (Homo sapiens, UniProt P61586); assay: as above; conditions: read-out: Rho-A: % inh..
T1 construct: made in house
T1 sequence (P61586 whole entry): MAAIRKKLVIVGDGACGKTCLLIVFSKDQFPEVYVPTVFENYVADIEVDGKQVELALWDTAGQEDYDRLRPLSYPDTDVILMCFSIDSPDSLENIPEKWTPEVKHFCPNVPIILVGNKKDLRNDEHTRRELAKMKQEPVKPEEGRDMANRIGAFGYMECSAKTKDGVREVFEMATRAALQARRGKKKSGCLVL
Summary of the method: as §1

Row | Compound | KRas G12C mutant + SOS: % inh. (KRas G12C mutant) | KRas G12C mutant: % inh. (KRas G12C mutant) | KRas Q61H mutant + SOS: % inh. (KRas Q61H mutant) | KRas Q61H mutant: % inh. (KRas Q61H mutant) | inhibition at 20 µM (Rho-A) | % inh of JNK in Panc-1 (JNK phosphorylation)
1 | COc1cccc(Nc2nc(-c3nccn3C)nn3cc(-c4ccn(C(C)C)n4)c(C)c23)n1 [Compound 7, 6-(1-Isopropyl-1H-pyrazol-3-yl)-N-(6-methoxypyridin-2-yl)-5-methyl-2-(1-methyl-1H-imidazol-2-yl)pyrrolo[2,1-f][1,2,4]triazin-4-amine] | A (A = 1-25% inhibition) | 0 (0 = 0% inhibition) | A (A = 1-25% inhibition) | B (B = 26-49% inhibition) | 0% | H* (H* ≥ 100% activation)
2 | CC(C)n1ccc(-c2cn3nc(-c4nccn4C)nc(O)c3c2-c2ccccc2)n1 [Compound 17, 6-(1-Isopropyl-1H-pyrazol-3-yl)-2-(1-methyl-1H-imidazol-2-yl)-5-phenylpyrrolo[2,1-f][1,2,4]triazin-4-ol] | C (C = 50-75% inhibition) | C (C = 50-75% inhibition) | C (C = 50-75% inhibition) | C (C = 50-75% inhibition) | 76 to 100% | 0 (0 = 0% inhibition)

Continued, in another order:

Row | KRas G12C mutant + SOS: % inh. (KRas G12C mutant) | KRas G12C mutant: % inh. (KRas G12C mutant) | KRas Q61H mutant + SOS: % inh. (KRas Q61H mutant) | KRas Q61H mutant: % inh. (KRas Q61H mutant) | inhibition at 20 µM (Rho-A) | Compound | % inh of JNK in Panc-1 (JNK phosphorylation)
3 | 0 (0 = 0% inhibition) | 0 (0 = 0% inhibition) | A (A = 1-25% inhibition) | 0 (0 = 0% inhibition) | 1 to 25% | COC1CCCN(c2nc(-c3nccn3C)nn3cc(-c4ccn(C(C)C)n4)c(-c4ccccc4)c23)C1 (racemic) [Compound 21, rac 6-(1-Isopropyl-1H-pyrazol-3-yl)-4-(3-methoxypiperidin-1-yl)-2-(1-methyl-1H-imidazol-2-yl)-5-phenylpyrrolo[2,1-f][1,2,4]triazine] | H* (H* ≥ 100% activation)
4 | A (A = 1-25% inhibition) | 0 (0 = 0% inhibition) | 0 (0 = 0% inhibition) | 0 (0 = 0% inhibition) | 1 to 25% | COc1cccc(-c2cn3nc(-c4nccn4C)nc(N[C@@H]4CC[C@@H](OC)C4)c3c2-c2ccccc2)c1Cl.Cl (racemic) [Compound 34, rac 6-(2-Chloro-3-methoxyphenyl)-N-((1R,3R)-3-methoxycyclopentyl)-2-(1-methyl-1H-imidazol-2-yl)-5-phenylpyrrolo[2,1-f][1,2,4]triazin-4-amine hydrochloride] | H (H = 100% inhibition)
5 | A (A = 1-25% inhibition) | B (B = 26-49% inhibition) | A (A = 1-25% inhibition) | B (B = 26-49% inhibition) | 50 to 75% | COc1cc(Nc2nc(-c3nccn3C)nn3cc(-c4ccn(C(C)C)n4)c(-c4ccccc4)c23)ncn1 [Compound 22, 6-(1-Isopropyl-1H-pyrazol-3-yl)-N-(6-methoxypyrimidin-4-yl)-2-(1-methyl-1H-imidazol-2-yl)-5-phenylpyrrolo[2,1-f][1,2,4]triazin-4-amine] | H* (H* ≥ 100% activation)
